Assays:
[1] = system: cells with the mutated murA gene (single or multiple copies); assay: Growth on MHB plates with phosphomycin, mutated murA; format: cell-based, E. coli
Description: (§1) E. coli mutants resistant to phosphomycin were obtained by plating E. coli MC1061 cells in the presence of 5 μg/ml phosphomycin (about 5×MIC), in MHB. Colonies of these resistant mutants were picked and repatched on MHB plates supplemented with 5 μg/ml. […] To determine whether the phenotype of phosphomycin resistance is due to these changes in the murA gene, primers murA-F1 and murA-R1 were used to amplify up a region consisting of 1 kb upstream of the murA gene and 1 kb downstream of the murA gene using as template, DNA extracted from MC1061 and from the phosphomycin-resistant murA mutants. The 3.5 kb PCR amplification fragments were cloned into a high copy vector, and 3 independent clones were picked for each type. The clones, carrying multi-copy plasmids with either wild-type murA or mutated mura, were streaked onto MHB plates and on MHB supplemented with 5, 25, and 50 ,μg/ml phosphomycin. The wild-type MC1061 strain (carrying a single copy of the wild-type murA gene) and the original mutants resistant to phosphomycin were used as controls. All strains grew on MHB plates without phosphomycin. On MHB plates with 5 μg/ml phosphomycin, there was slight growth for strains carrying the wild-type murA gene, whether present in single copy or multiple copies, whereas there was robust growth for cells with the mutated murA gene, whether present in single or multiple copies. On MHB plates with 25 μg/ml phosphomycin, there was no growth for strains carrying the wild-type mura gene, whether present in single copy or multiple copies, but there was robust growth for cells carrying single or multiple copies of the mutated murA gene. On MHB plates with 50 μg/ml phosphomycin, there was no growth for strains carrying wild-type murA (whether present in single copy or multiple copies) but slight growth for strains carrying the mutated murA gene whether present in single or multiple copies. Clearly, the mutants isolated because of their phenotype of resistance to phosphomycin carry mutant mura genes which can confer resistance when transferred to other cells by transformation. […]

[2] = system: strains carrying the wild-type murA gene (single copy or multiple copies); assay: Growth on MHB plates with phosphomycin, wild-type murA; format: cell-based, E. coli
Description: as §1

**Q.** What does the source list for `C[C@@H]1O[C@@H]1P(=O)(O)O` [phosphomycin]?
**A.** growth on MHB plates ([1]; 5 μg/ml phosphomycin): robust growth; growth on MHB plates ([1]; 25 μg/ml phosphomycin): robust growth; growth on MHB plates ([1]; 50 μg/ml phosphomycin): slight growth; growth on MHB plates ([2]; 5 μg/ml phosphomycin): slight growth; growth on MHB plates ([2]; 25 μg/ml phosphomycin): no growth; growth on MHB plates ([2]; 50 μg/ml phosphomycin): no growth
